Data from US11952328B2, “Selective ship inhibitors for treating disease” (THE RESEARCH FOUNDATION FOR THE STATE UNIVERSITY OF NEW YORK, priority 2018, dated 2024).

Assays:
SHIP2 = molecular target: T1, SHIP2 (Homo sapiens, UniProt O15357); settings: Suwa et al. 2009; cited from earlier work
T1 sequence (O15357 1-1258): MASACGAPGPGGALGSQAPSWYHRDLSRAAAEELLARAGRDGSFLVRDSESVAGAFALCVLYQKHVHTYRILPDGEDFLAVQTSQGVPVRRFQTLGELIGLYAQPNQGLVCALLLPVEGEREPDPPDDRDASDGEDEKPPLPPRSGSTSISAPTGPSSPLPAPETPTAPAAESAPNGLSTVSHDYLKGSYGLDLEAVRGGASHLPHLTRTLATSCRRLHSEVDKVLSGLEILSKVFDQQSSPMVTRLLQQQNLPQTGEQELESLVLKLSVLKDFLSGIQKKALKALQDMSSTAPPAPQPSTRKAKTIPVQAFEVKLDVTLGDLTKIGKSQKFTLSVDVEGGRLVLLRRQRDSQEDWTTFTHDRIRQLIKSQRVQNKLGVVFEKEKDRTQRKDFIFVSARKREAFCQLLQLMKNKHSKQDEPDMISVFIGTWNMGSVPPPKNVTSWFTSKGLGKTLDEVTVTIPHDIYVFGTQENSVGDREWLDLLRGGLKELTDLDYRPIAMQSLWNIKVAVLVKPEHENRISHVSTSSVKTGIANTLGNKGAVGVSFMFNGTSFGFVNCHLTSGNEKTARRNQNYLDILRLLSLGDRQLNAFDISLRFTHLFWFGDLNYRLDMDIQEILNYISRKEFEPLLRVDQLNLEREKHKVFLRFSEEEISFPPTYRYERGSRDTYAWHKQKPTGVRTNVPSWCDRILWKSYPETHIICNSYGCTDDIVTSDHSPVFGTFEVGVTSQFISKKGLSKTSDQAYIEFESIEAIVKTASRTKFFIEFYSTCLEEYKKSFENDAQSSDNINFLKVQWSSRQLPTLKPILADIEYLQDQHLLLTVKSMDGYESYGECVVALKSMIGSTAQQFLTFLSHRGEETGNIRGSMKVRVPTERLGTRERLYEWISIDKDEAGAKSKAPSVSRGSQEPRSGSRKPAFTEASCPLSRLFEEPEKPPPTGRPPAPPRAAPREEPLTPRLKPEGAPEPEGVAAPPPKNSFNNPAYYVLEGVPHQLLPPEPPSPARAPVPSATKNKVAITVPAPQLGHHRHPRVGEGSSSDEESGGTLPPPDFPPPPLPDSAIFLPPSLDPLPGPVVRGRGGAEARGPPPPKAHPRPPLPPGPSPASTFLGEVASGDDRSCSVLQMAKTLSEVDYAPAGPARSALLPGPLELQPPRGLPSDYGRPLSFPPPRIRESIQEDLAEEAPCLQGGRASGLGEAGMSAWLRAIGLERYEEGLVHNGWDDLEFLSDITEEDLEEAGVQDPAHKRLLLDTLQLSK

RMA-Rael cells [1] = assay: Overall survival of RMA-Rael tumor challenged hosts (Kaplan-Meier); type: in vivo, mice; settings: C57BL/6 hosts, 1×10^5 RMA-Rael
Procedure: FIGS. 6A-6I show the survival of tumor bearing mice treated with a SHIP inhibitor. […] Hosts were treated on the day of tumor challenge and the following day as in FIG. 1. The 2-day treatment course was repeated each week for the duration of survival. […] Mice received either NK cell depleting, anti-NK1.1 antibody (PK136), or isotype control antibody prior to tumor challenge (5×10^5 RMA-Rael). The hosts received SHIP inhibitor two consecutive days each week until death. […] The hosts were treated on the day of tumor challenge and the following day as in FIG. 1. The 2-day treatment course was repeated each week for the duration of survival.
The most clinically relevant endpoint in any cancer therapy study is not a measured decrease in tumor burden, but instead, a significant increase in survival promoted by the treatment.
In order to further define 3AC′s capacity to control malignancy through immunomodulatory effects the capacity of 3AC to promote resistance of NSG, TcRa^−/− and NK cell depleted hosts to RMA-Rael tumor challenge was examined. As before, mice received treatment with 3AC or vehicle for two consecutive days each week followed by a five-day cessation of treatment to prevent disarming and/or exhaustion. This treatment strategy was continued indefinitely and survival was monitored (FIG. 6A). To confirm that, in addition to the chemotherapeutic effect documented in FIG. 5, 3AC-induced enhanced-NK and -T cell activity is important for the survival benefit following tumor challenge, NSG mice (mice deficient of all lymphocyte lineages) were challenged.
To determine if T cells are required for the 3AC-mediated survival benefit, the same expirement using TcRa^−/− hosts that lack a TcR-ab^+ T cell compartment was repeated. […] To directly test the requirement for an intact NK cell compartment for 3AC-mediated increased survival after tumor challenge, the experiment as described in FIG. 6A were repeated challenging C57BL/6 hosts that were first depleted of
NK cells. Here, prior to tumor challenge, hosts were injected with either NK cell depleting anti-NK1.1 antibody (C57BL/6-DNK) or with antibody isotype control (C57BL/6-iso) (FIG. 6B).
The SHIP1 inhibitor 3AC was then tested in a genetic model in which the molecular target, SHIP1, was absent in a key target population of T cells, which are required for protection in the RMA-Rael lymphoma challenge model. […] Thus, SHIP inhibitor protection after tumor challenge is lost when the T cell compartment lacks the molecular target (SHIP1) in T cells.
There are two paralogs of SHIP: SHIP1 which is expressed in a limited range of tissues including hematopoietic cells, and SHIP2 which is expressed by a wide array of cell types. To determine if SHIP2 may also play a role in host defense against malignancy as described above tumor bearing mice were treated with small-molecule inhibitors against SHIP2 as well. […] Stem Cells. (2015); 33: 848-858; Hoekstra, E. et al., Lipid phosphatase SHIP2 functions as oncogene in colorectal cancer by regulating PKB activation. Oncotarget. (2016) 7: 73525-73540). Like 3AC, pan-SHIP1/2 inhibitors such as K118 are also cytotoxic for RMA-Rael cells in vitro. The pan SHIP1/2 inhibitory compounds K118 and K149 were compared to the SHIP1 selective compound 3AC.
Simultaneous inhibition of both SHIP1and SHIP2 may be deleterious to the immune response promoted by 3AC. […] In the study, the SHIP1 selective inhibitor 3AC that provides for protection after RMA-Rael challenge was simulataneously co-administered.

SHIP1/2 = settings: Brooks et al. 2015; Hoekstra et al. 2016; cited from earlier work
RMA-Rael cells [2] = assay: RMA-Rael viability following in vitro treatment; type: cell-based, mice; settings: 24 h, doses given as 5-20 pM, vs solvent only
From the text: FIGS. 5A-5I show the effects of SHIP1 inhibitor as a chemotherapeutic. […] FIG. 5D and FIG. 5E show the representative histograms and box-and-whisker plots of FasL expression by NK cells from C56BL/6 (p=0.0002; Unpaired t test with Welch's correction) or RAG1−/− (p<0.0001; Mann-Whitney U test) tumor challenged, SHIP inhibitor or vehicle treated hosts. […] (NK cells p=0.0192; Unpaired t test with Welch's correction. T cells p=0.0659; Mann-Whitney U test). Additionally, FIGS. 5A-5G show the analysis by flow cytometry on day 3 after hosts receive SHIP inhibitor or vehicle for two consecutive days. NK cells are defined as NK1.1+CD3ε−. The graphs are representative of at least two independent experiments with at least four SHIP inhibitor and vehicle treated mice. […] Viability is expressed as frequency at a given concentration expressed as a percentage of solvent only treated cells. The kill curve summarizes pooled data from three independent experiments using six replicate wells/concentration with mean ±SEM indicated (n=18 per group. One-way ANOVA with Dunnett's multiple comparisons. 0 pM vs. 20 pM Adjusted p value =0.0001. 0 pM vs. 15 pM Adjusted p value =0.0001. 0 pM vs. 10 pM Adjusted p value =0.0001. 0 pM vs. 7.5 pM Adjusted p value =0.0001. 0 pM vs. 5 pM Adjusted p value =0.0001). […]

| SMILES | selectivity for SHIP2 (SHIP2) | overall survival (protection) (RMA-Rael cells [1]; FIG. 6I, alone vs vehicle) | overall survival (effect on protection by 3AC) (RMA-Rael cells [1]; FIG. 6I, co-administered with 3AC) | SHIP1/2 inhibitory activity (SHIP1/2) | overall survival (protection) (RMA-Rael cells [1]; FIG. 6H, vs vehicle) | RMA-Rael viability (direct killing) (RMA-Rael cells [2]) |
| --- | --- | --- | --- | --- | --- | --- |
| C[C@H](NC(=O)c1sccc1OCc1ccc(Cl)cc1)c1ccccc1 [AS1949490] | high degree of selectivity | no protection | completely abrogated the protective effect of 3AC |  |  |  |
| C[C@@]12CCC[C@H]1[C@@H]1CC[C@H]3C[C@@H](N)CC[C@]3(C)[C@H]1CC2.Cl [Compound K118, 3β-amino-5α-androstane hydrochloride] |  |  |  | pan-SHIP1/2 inhibitory activity | no protection | cytotoxic |
| CSc1ccc2c(c1)c(CCN)c(C)n2Cc1ccc(Cl)cc1.Cl [Compound K149, 2-[1-(4-chlorobenzyl)-2-methyl-5-(methylmercapto)-1H-3-yl] ethanaminium chloride] |  |  |  | pan-SHIP1/2 inhibitory activity | no protection |  |
